Assay results reported in US7977332B2, “Insecticidal N-(heteroarylalkyl)alkanediamine derivatives” (FMC Corporation, priority 2003, dated 2011).

tested on: tobacco budworm (Heliothis virescens [Fabricius]); assay: surface-treated diet test against tobacco budworm; type: in vivo; settings: 0.25 millimolar on the surface of the diet; second instar larvae; five-day exposure
Description: Candidate insecticides were evaluated for activity against the tobacco budworm (Heliothis virescens [Fabricius]) in a surface-treated diet test.
In this test one mL of molten (65-70° C.) wheat germ-based artificial diet was pipetted into each well of a four by six (24 well) multi-well plate (ID# 430345-15.5 mm dia.×17.6 mm deep; Corning Costar Corp., One Alewife Center, Cambridge, Mass. 02140). The diet was allowed to cool to ambient temperature before treatment with candidate insecticide.
For a determination of insecticidal activity, solutions of the candidate insecticides were prepared for testing using a Packard 204DT Multiprobe® Robotic System (Packard Instrument Company, 800 Research Parkway, Meriden, Conn. 06450), in which the robot first diluted a standard 50 millimolar DMSO solution of candidate insecticide with a 1:1 water/acetone solution (V/V) in a ratio of 1:7 stock solution to water/acetone. The robot subsequently pipetted 40 microliters of the so-prepared solution onto the surface of the diet in each of three wells in the 24 multi-well plate. The process was repeated with solutions of seven other candidate insecticides. Once treated, the contents of the multi-well plate were allowed to dry, leaving 0.25 millimoles of candidate insecticide on the surface of the diet, or a concentration of 0.25 millimolar. Appropriate untreated controls containing only DMSO on the diet surface were also included in this test.
For evaluations of the insecticidal activity of a candidate insecticide at varying rates of application, the test was established as described above using sub-multiples of the standard 50 millimolar DMSO solution of candidate insecticide. For example, the standard 50 millimolar solution was diluted by the robot with DMSO to give 5, 0.5, 0.05, 0.005, 0.0005 millimolar, or more dilute solutions of the candidate insecticide. In these evaluations there were six replicates of each rate of application placed on the surface of the diet in the 24 multi-well plate, for a total of four rates of application of candidate insecticide in each plate.
In each well of the test plate was placed one second instar tobacco budworm larvea, each weighing approximately five milligrams. After the larvae were placed in each well, the plate was sealed with clear polyfilm adhesive tape. The tape over each well was perforated to ensure an adequate air supply. The plates were then held in a growth chamber at 25° C. and 60% relative humidity for five days (light 14 hours/day).
After the five-day exposure period insecticidal activity for each rate of application of candidate insecticide was assessed as percent inhibition of insect weight relative to the weight of insects from untreated controls, and percent mortality when compared to the total number of insects infested.
The test compounds of formula I are identified by numbers that correspond to those in Table 1.

With `C=CCN(CCNC(=C[N+](=O)[O-])SCc1ccc(C(F)(F)F)cc1)Cc1ccc(Cl)nc1` [Compound 328] the “Percent Mortality” value was 83%.

same assay, conditions: 0.25 millimolar on the surface of the diet; second instar larvae; five-day exposure; insect weight relative to untreated controls

Going from `Cc1ccccc1CSC(=C[N+](=O)[O-])NCCN(Cc1ccc(Cl)nc1)Cc1ccc(Cl)nc1` [Compound 319] to `COc1ccccc1CSC(=C[N+](=O)[O-])NCCN(Cc1ccc(Cl)nc1)Cc1ccc(Cl)nc1` [Compound 325], the “Percent Growth Inhibition” value rises from 10% to 100%.

Going from `Cc1cccc(CSC(=C[N+](=O)[O-])NCCN(Cc2ccc(Cl)nc2)Cc2ccc(Cl)nc2)c1` [Compound 320] to `COc1cccc(CSC(=C[N+](=O)[O-])NCCN(Cc2ccc(Cl)nc2)Cc2ccc(Cl)nc2)c1` [Compound 326], the “Percent Growth Inhibition” value rises from 96% to 100%.

`Cc1ccc(CSC(=C[N+](=O)[O-])NCCN(Cc2ccc(Cl)nc2)Cc2ccc(Cl)nc2)cc1` [Compound 321] and `COc1ccc(CSC(=C[N+](=O)[O-])NCCN(Cc2ccc(Cl)nc2)Cc2ccc(Cl)nc2)cc1` [Compound 327] are the same in “Percent Growth Inhibition” value: 100% for the first, 100% for the second.

`O=[N+]([O-])C=C(NCCN(Cc1ccc(Cl)nc1)Cc1ccc(Cl)nc1)SCc1ccccc1C(F)(F)F` [Compound 322] and `O=[N+]([O-])C=C(NCCN(Cc1ccc(Cl)nc1)Cc1ccc(Cl)nc1)SCc1cccc(C(F)(F)F)c1` [Compound 323] are the same in “Percent Growth Inhibition” value: 100% for the first, 100% for the second.

Going from `O=[N+]([O-])C=C(NCCN(Cc1ccc(Cl)nc1)Cc1ccc(Cl)nc1)SCc1ccc(C(F)(F)F)cc1` [Compound 324] to `C=CCN(CCNC(=C[N+](=O)[O-])SCc1ccc(C(F)(F)F)cc1)Cc1ccc(Cl)nc1` [Compound 328], the “Percent Growth Inhibition” value falls from 100% to 98%.

For `C#CCN(CCN1COCNC1=N[N+](=O)[O-])Cc1ccc(Cl)nc1` [Compound 558], the “Percent Growth Inhibition” value was 85%.
